This passage reports relative viability results from the supplement of paper PMC10307832.

What all share (assay): relative viability (nuclei count vs DMSO), 5 days (fraction); higher = more cells survive
Compound in assay [1]: C1=CC2=NC=CN=C2C=C1/C=C/3\C(=O)NC(=O)S3 + Cc1nc(Nc2ncc(C(=O)Nc3c(C)cccc3Cl)s2)cc(N2CCN(CCO)CC2)n1 [Dasatinib] (partner 0.075 µM)
A digest of the protocol:
(§1)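 Relative viability equals treated-well nuclei counts divided by vehicle-well nuclei counts. Counts came from 4× images of lung cancer cell lines grown in 1536-well plates for 5 days after pin-tool dosing on the day after seeding. Dosing used one drug alone or a fixed anchor-drug dose plus five library-drug doses (not always all listed) in √10 steps, and values are medians of duplicate plates.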

Compound in the assay “BGJ398 + Trametinib”: CCN1CCN(c2ccc(Nc3cc(N(C)C(=O)Nc4c(Cl)c(OC)cc(OC)c4Cl)ncn3)cc2)CC1 [BGJ398] + CC(=O)Nc1cccc(-n2c(=O)n(C3CC3)c(=O)c3c(Nc4ccc(I)cc4F)n(C)c(=O)c(C)c32)c1 [Trametinib] (partner 0.02 µM)
A digest of the protocol:
as §1

Compound in the assay “BGJ398 + Navitoclax”: CCN1CCN(c2ccc(Nc3cc(N(C)C(=O)Nc4c(Cl)c(OC)cc(OC)c4Cl)ncn3)cc2)CC1 [BGJ398] + CC1(C)CCC(c2ccc(Cl)cc2)=C(CN2CCN(c3ccc(C(=O)NS(=O)(=O)c4ccc(N[C@H](CCN5CCOCC5)CSc5ccccc5)c(S(=O)(=O)C(F)(F)F)c4)cc3)CC2)C1 [Navitoclax] (partner 0.5 µM)
A digest of the protocol:
as §1

Compound in the assay “BGJ398 + OSI-027”: CCN1CCN(c2ccc(Nc3cc(N(C)C(=O)Nc4c(Cl)c(OC)cc(OC)c4Cl)ncn3)cc2)CC1 [BGJ398] + COc1cccc2cc(-c3nc([C@H]4CC[C@H](C(=O)O)CC4)n4ncnc(N)c34)[nH]c12 [OSI-027] (partner 0.5 µM)
A digest of the protocol: as §1

Regarding UMC-11, the relative viability was determined as 0.467 in assay [1] (first compound 0.02 µM); 0.523 in assay [1] (first compound 0.06325 µM); 0.427 in assay [1] (first compound 0.2 µM); 0.489 in assay [1] (first compound 0.6325 µM); 0.519 in assay [1] (first compound 2 µM); 0.671 in the assay with BGJ398 + Trametinib (first compound 0.01 µM). Moreover, the relative viability with BGJ398 + Trametinib (first compound 0.03162 µM) was 0.749; in the assay with BGJ398 + Trametinib (first compound 0.1 µM), 0.808; with BGJ398 + Trametinib (first compound 0.3162 µM), 0.622; with BGJ398 + Trametinib (first compound 1 µM), 0.55; with BGJ398 + Navitoclax (first compound 0.01 µM), 0.343; in the assay with BGJ398 + Navitoclax (first compound 0.03162 µM), 0.336. Besides, the relative viability turned out to be 0.314 with BGJ398 + Navitoclax (first compound 0.1 µM); 0.382 with BGJ398 + Navitoclax (first compound 0.3162 µM); 0.307 with BGJ398 + Navitoclax (first compound 1 µM); 0.494 in the assay with BGJ398 + OSI-027 (first compound 0.01 µM); 0.449 with BGJ398 + OSI-027 (first compound 0.03162 µM); 0.53 with BGJ398 + OSI-027 (first compound 0.1 µM). In addition, the relative viability stood at 0.411 with BGJ398 + OSI-027 (first compound 0.3162 µM) and 0.429 in the assay with BGJ398 + OSI-027 (first compound 1 µM).
